Source: PMC3200115, “Peptide Inhibition of Topoisomerase IB from Plasmodium falciparum” (Molecular Biology International, 2011)
Bridges are numbered along the chain shown (N, C = ends). Where no end group is shown, it is not given here.

Experiments:
[1] = test system: P. falciparum topoisomerase I (pfTopoI); assay: Plasmid (pBR322) DNA relaxation by pfTopoI; format: biochemical, Plasmodium falciparum; settings: peptide 1.3 to 50 μM; even at concentrations up to 50 μM; 30 min, 37°C
[2] = test system: type IB Topo of Vaccinia virus (vvTopoI); settings: cited from earlier work; for step of catalysis inhibited (vvTopoI): DNA relaxation by vvTopoI; for step of catalysis inhibited (vvTopoI) / inhibition of vvTopoI relaxation activity: ref [39], [40]; for activity against vvTopoI: from rescreening of peptide combinatorial library against vvTopoI, ref [40]
[3] = test system: DNA; assay: Unspecific DNA binding; settings: confirmed in the present study, data not shown
[4] = test system: bacteriophage λ-Int; settings: ref [39], [40]; cited from earlier work

Row | Substance | effect on relaxation activity of pfTopoI [1] | step of catalysis inhibited (vvTopoI) [2] | activity against vvTopoI [2] | inhibition of vvTopoI relaxation activity [2] | DNA binding capacity [3] | step of catalysis inhibited (λ-Int) [4]
1 | KCCRCK (disulfide (positions not given here)) [synthetic hexapeptide purchased from GenScript] | no effect | specific inhibition of the cleavage and not the ligation step of catalysis | high activity | inhibited the relaxation activity of vvTopoI | unspecific DNA binding capacity | specific inhibition of the cleavage and not the ligation step of catalysis
2 | WYCRCK (disulfide 3-5 (inferred)) [synthetic hexapeptide purchased from GenScript] | no effect | specific inhibition of the cleavage and not the ligation step of catalysis | high activity | inhibited the relaxation activity of vvTopoI | unspecific DNA binding capacity | specific inhibition of the cleavage and not the ligation step of catalysis
